Results taken from PubChem BioAssay (NCI).
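Each compound was tested at five concentrations against cells in 96-well plates for 48 hours. The concentration for full growth arrest is given as TGI.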

Key:
Assay in all cases: DTP human tumour cell line panel, 48 h
[1] = test system: SK-MEL-5 melanoma
[2] = test system: SNB-19 CNS
[3] = test system: OVCAR-5 ovarian
[4] = test system: T-47D breast
[5] = test system: MOLT-4 leukemia
[6] = test system: ACHN renal
[7] = test system: SF-539 CNS
[8] = test system: HT29 colon
[9] = test system: K-562 leukemia
[10] = test system: MCF7 breast
[11] = test system: HCT-116 colon
[12] = test system: NCI-H522 lung
[13] = test system: EKVX NSCLC
[14] = test system: HCC-2998 colon
[15] = test system: DU-145 prostate
[16] = test system: COLO 205 colon
[17] = test system: RPMI-8226 leukemia
[18] = test system: RXF 393 renal

Structure (SMILES) | TGI [1] [µM] | TGI [2] [µM] | TGI [3] [µM] | TGI [4] [µM] | TGI [5] [µM] | TGI [6] [µM] | TGI [7] [µM] | TGI [8] [µM] | TGI [9] [µM] | TGI [10] [µM] | TGI [11] [µM] | TGI [12] [µM] | TGI [13] [µM] | TGI [14] [µM] | TGI [15] [µM] | TGI [16] [µM] | TGI [17] [µM] | TGI [18] [µM]
Cc1ccc2c(c1)-c1c(C#N)c(N)nc(-c3ccccc3)c1CCS2(=O)=O | > 24 | > 46.9 | > 100 | > 100 | > 100 | > 100 | > 100 | > 35 | 11.7 | > 100 | > 100 | 4.58 | > 100 | > 100 | > 38.9 | > 56.3 | 32.9 | 
Cc1ccc(S(=O)(=O)Nn2c(S)c(C#N)c(-c3ccc([N+](=O)[O-])cc3)c(C#N)c2=O)cc1 | 29.5 |  | > 100 |  | 47.7 | > 100 | 35.4 | > 100 | 53.2 | > 100 | 32.8 | 30.2 | > 100 | > 100 |  | 98.3 | 37.8 | > 100
O=C1[C@@H]2C[C@@H](O)CN2C(=O)c2ccccc2N1CCCO |  | > 100 | > 100 | > 100 | > 100 | > 100 | > 100 | > 100 | > 100 | > 100 | > 100 | > 100 | > 100 |  | > 100 |  | > 100 | 
CC(=O)N(CN1C(=O)CCC1C(=O)O)c1cccc(O)c1 (centres undefined) | > 100 | > 100 | > 100 | > 100 | > 100 | > 100 | > 100 | > 100 | > 100 | > 100 | > 100 | > 100 | > 100 | > 100 | > 100 | > 100 | > 100 | 
Nc1ncnc2c1cnn2Cc1cn(COCC(O)CO)nn1 (centres undefined) | > 100 | > 100 | > 100 | > 100 |  | > 100 | > 100 | > 100 |  | > 100 | > 100 | 30.8 | > 100 | > 100 | > 100 | > 100 |  | 
COC(=O)[C@@]12C(=O)C(C)C(=O)[C@]1(C)C(C)=C[C@H]1[C@]3(C=O)CC[C@H](OC(C)=O)C(C)(C)[C@H]3CC[C@@]12C (some centres undefined) | > 100 | > 100 | > 100 | > 100 | 69.1 | > 100 | > 100 | > 100 | > 100 |  | > 100 | > 100 | > 100 | > 100 | > 100 | > 100 | > 100 | > 100
CC(C)C12C=CC(C)(CC1)n1c(=O)c3cc4ccccc4cc3c(=O)n12 (centres undefined) | > 100 | > 100 | > 100 |  | > 100 | > 100 | > 100 | > 100 | > 100 |  | > 100 | 83.7 | > 100 | > 100 |  | > 100 | > 100 | > 100
